“And” between values parts separate entries of the source, which are not always exact repeats. Equal entries are not always repeated.
System: 885724-159-R-J1-PDC spheroids viability
Assay: Anticancer human tumor 885724-159-R-J1-PDC patient-derived pancreatic adenocarcinoma cell line growth inhibition [TAK]
Details: spheroids with HUVEC and MSC; for viability, T/C: stronger effect = lower value; active = viability on the fitted dose curve at most 10% of control; inactive = the rest
Outline: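 Spheroids of 60% malignant cells, 25% HUVEC and 15% hMSC were exposed to targeted agents combined with TAK-243 or ipatasertib. Concentrations started at or near clinical Cmax (10 microM if unknown) and descended in half-log steps.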
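Note: spheroids exposed to drugs for seven days.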
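Throughout, for viability, T/C: 100% = DMSO vehicle control viability.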

CC(C)(C)c1nc(-c2cccc(NS(=O)(=O)c3c(F)cccc3F)c2F)c(-c2ccnc(N)n2)s1 + CC(C)NCC(C(=O)N1CCN(c2ncnc3c2C(C)CC3O)CC1)c1ccc(Cl)cc1
inactive: viability, T/C (second compound 0.3 µM, first compound 0.0316 µM) 85.2% | viability, T/C (second compound 0.3 µM, first compound 0.1 µM) 101% | viability, T/C (second compound 0.3 µM, first compound 0.316 µM) 112% | viability, T/C (second compound 0.3 µM, first compound 1 µM) 134% | viability, T/C (second compound 0.3 µM, first compound 3.16 µM) 134% | viability, T/C (second compound 0.3 µM, first compound 10 µM) 121% | viability, T/C (second compound 0.949 µM, first compound 0.0316 µM) 72.3% | viability, T/C (second compound 0.949 µM, first compound 0.1 µM) 100% | viability, T/C (second compound 0.949 µM, first compound 0.316 µM) 111% | viability, T/C (second compound 0.949 µM, first compound 1 µM) 117% | viability, T/C (second compound 0.949 µM, first compound 3.16 µM) 92.2% | viability, T/C (second compound 0.949 µM, first compound 10 µM) 80.5% | viability, T/C (second compound 3 µM, first compound 0.0316 µM) 68.2% | viability, T/C (second compound 3 µM, first compound 0.1 µM) 90.7% | viability, T/C (second compound 3 µM, first compound 0.316 µM) 94% | viability, T/C (second compound 3 µM, first compound 1 µM) 96% | viability, T/C (second compound 3 µM, first compound 3.16 µM) 73.4% | viability, T/C (second compound 3 µM, first compound 10 µM) 57.6% | viability, T/C (second compound 9.49 µM, first compound 0.0316 µM) 57.1% | viability, T/C (second compound 9.49 µM, first compound 0.1 µM) 71.3% | viability, T/C (second compound 9.49 µM, first compound 0.316 µM) 77% | viability, T/C (second compound 9.49 µM, first compound 1 µM) 76.1% | viability, T/C (second compound 9.49 µM, first compound 3.16 µM) 56.1% | viability, T/C (second compound 9.49 µM, first compound 10 µM) 49.3% | viability, T/C (second compound 30 µM, first compound 0.0316 µM) 37.7% | viability, T/C (second compound 30 µM, first compound 0.1 µM) 41.3% | viability, T/C (second compound 30 µM, first compound 0.316 µM) 46.9% | viability, T/C (second compound 30 µM, first compound 1 µM) 42.7% | viability, T/C (second compound 30 µM, first compound 3.16 µM) 41.6% | viability, T/C (second compound 30 µM, first compound 10 µM) 37.7%
> 10 µM: IC50 (curve of first compound, second compound 0.3 µM) | IC50 (curve of first compound, second compound 0.949 µM) | IC50 (curve of first compound, second compound 3 µM)
< 0.0316 µM: IC50 (curve of first compound, second compound 30 µM)
8.87 µM: IC50 (curve of first compound, second compound 9.49 µM)

CC(=O)Nc1cccc(-n2c(=O)n(C3CC3)c(=O)c3c(Nc4ccc(I)cc4F)n(C)c(=O)c(C)c32)c1
inactive: viability, T/C (compound 94.9 pM) 89.3% and 117% | viability, T/C (compound 0.0003 µM) 86.7% and 71.2% | viability, T/C (compound 0.000949 µM) 53.9% and 55.8% | viability, T/C (compound 0.003 µM) 37.1% and 40.6% | viability, T/C (compound 0.00949 µM) 26.4% and 30.2% | viability, T/C (compound 0.03 µM) 20.4%
0.00138 µM and 0.00118 µM: IC50 (curve of compound)
